Source: patent US20210251267A1, “LIGUSTROSIDIC ACID AND DERIVATIVES THEREOF FOR SWEETNESS ENHANCEMENT” (International Flavors & Fragrances Inc., priority 2018, published 2021)

Assays:
Set-up in all cases: species or system human
[1] = Enhancement of sucrose sweetness (flavor profile of sucrose solution with added substance); settings: sucrose solution (4%), all levels tested
From the text: (§1) The term “sweetness” or “sweetness intensity” is understood to mean the relative strength of sweet sensation as observed or experienced by an individual, e.g., a human, or a degree or amount of sweetness detected by a taster, for example on the scale from 0 (none) to 8 (very strong) used in sensory evaluations according to the procedure described in American Society for Testing Materials, Special Technical Publication-434: “Manual on Sensory Testing Methods,” ASTM International, West Conshohocken, Pa. (1996).
(§2) A sucrose solution (4%) was prepared in water. Each of ligustrosidic acid and 2′-hydroxy ligustrosidic acid solutions of different concentrations was prepared in ethanol solution in water (50%). Ligustrosidic acid and 2′-hydroxy ligustrosidic acid were evaluated at 1 and 200 ppm, respectively.
The flavor profile of the sucrose solution with added ligustrosidic acid and 2′-hydroxy ligustrosidic acid is reported in the following:
(§3) Solutions of sucrose (4%) and Luo Han Guo (120 ppm) were prepared as above (EXAMPLE II and III). In addition, solutions of fructose (3.4%), Reb A (GLG Life Tech Corporation, Canada) (90 ppm) and GSG (Glucosyl Steviol Glucosides, GLG Life Tech Corporation, Canada) (200 ppm) were also prepared in water.
The sucrose solution (4%) with the addition of various amount of Carica papaya leave extract was evaluated.

[2] = Enhancement of Luo Han Guo sweetness (flavor profile); settings: Luo Han Guo solution (120 ppm), all levels tested
From the text: as §1
A Luo Han Guo (Biovittoria Ltd., New Zealand) solution was prepared in water (120 ppm). Ligustrosidic acid and 2′-hydroxy ligustrosidic acid solutions were prepared as above (EXAMPLE II). The flavor profile of the Luo Han Guo solution with added ligustrosidic acid and 2′-hydroxy ligustrosidic acid is reported in the following:
as §3
The Luo Han Guo solution (120 ppm) with the addition of various amount of Carica papaya leave extract was evaluated.

[3] = Taste and smell of the compounds alone
Protocol: as §2

Compound	Overall effect on sucrose sweetness (summary in words) ([1]; listed as Ligustrosidic acid)	Overall effect on sucrose sweetness (summary in words) ([1]; listed as ligustrosidic acid)	Overall effect on Luo Han Guo sweetness (summary in words) ([2]; listed as Ligustrosidic acid)	Overall effect on Luo Han Guo sweetness (summary in words) ([2]; listed as ligustrosidic acid)	Taste and smell of the compound alone ([3]; evaluated at 1 ppm)	Overall effect on sucrose sweetness (summary in words) [1]	Overall effect on Luo Han Guo sweetness (summary in words) [2]	Taste and smell of the compound alone ([3]; evaluated at 200 ppm)
COC(=O)C1=COC(OC2OC(CO)C(O)C(O)C2O)C(=CC(=O)O)C1CC(=O)OCCc1ccc(O)cc1 (stereo in doubt) [Ligustrosidic Acid, [3-(carboxymethylene)-2-(β-D-glucopyranosyloxy)-3,4-dihydro-5-(methoxycarbonyl)]-2H-pyran-4-acetic acid-α-[2-(4-hydroxyphenyl)ethyl]ester]	particularly strong effect	enhanced overall sweetness, body and mouthfeel	particularly strong effect	enhanced overall sweetness, body and mouthfeel	devoid of taste and smell	–	–	–
COC(=O)C1=COC(OC2OC(CO)C(O)C(O)C2O)/C(=C\C(=O)O)C1CC(=O)OCCc1ccc(O)c(O)c1 (centres unmarked) [2′-Hydroxy Ligustrosidic Acid, 2′-hydroxy ligustrosidic acid]	–	–	–	–	–	strong effect in sweetness enhancement	strong effect in sweetness enhancement	devoid of taste and smell
